The values below come from US10222390B2, “Near-infrared fluorescent sensors for biological amines” (The Curators of the University of Missouri, priority 2015, dated 2019).

Data set [1] deals with epinephrine-enriched chromaffin cells. The data set can be described thus: Confocal imaging of epinephrine-enriched chromaffin cells incubated with NS715. In kind it is cell-based. Conditions: NS715 10 μM. Here is the method: (§1) NS715 binds to norepinephrine and strongly fluoresces, but not to epinephrine because it is a secondary-amine neurotransmitter. Both populations of cells were incubated with NS715 (10 μM), washed, and subsequently imaged using confocal microscopy. The unbound UV λmax=500 nm and the bound UV λmax=546 nm. The unbound sensor emits at 686 nm and the bound sensor emits at 715 nm. Excitation wavelengths of 458 nm and 633 nm were used to preferentially excite the unbound and bound forms of NS715. Emission for all excitation wavelengths was measured using 650 nm-710 nm bandpass filter.

Data set [2] concerns norepinephrine-enriched chromaffin cells. The data set can be described thus: Confocal imaging of norepinephrine-enriched chromaffin cells incubated with NS715. The format is cell-based. Conditions: NS715 10 μM. Here is the method:
as §1

Data set [3] in a line: Interaction of NS715 with epinephrine in vitro. The format is binding.
The nature of data set [4]: Fluorescence/absorbance titration of NS715 with serotonin. The format is binding. As to the method: (§2) NeuroSensor 715 was screened with various relevant amines via absorption and fluorescence spectroscopy. Steady-state fluorescence spectroscopic studies were performed using a Horiba Scientific Fluorolog-3 Model FL3C-111 spectrofluorometer and data was collected and analyzed using HJY FluorEssence™ 3.5.1.20 software package. UV-visible spectra were recorded on a Varian Cary 1E UV-visible spectrophotometer at 37° C.
(§3) A 1 mg/mL stock solution of NeuroSensor 715 in DMSO was prepared. A stock solution of NeuroSensor 715 and derivatives in buffer (2×10^−5 M, 25 mM HEPES, 50 mM Na2S2O3, pH 5.0) was prepared. Serotonin, norepinephrine, dopamine, and glutamate stock solutions were prepared by separately dissolving the analytes at the concentration to be used in the titrations with the buffered stock solution of NeuroSensor 715 (thus avoiding dilution of NeuroSensor 715 during the experiment). NeuroSensor 715 was titrated with aliquots of the analyte solution. NeuroSensor 715 derivatives were excited at 559 nm. The slit width was 10 nm for both excitation and emission.
NeuroSensor 715 binds to all primary amines via iminium ion formation, which produces a red shift in absorption from 500 to 546 nm (FIG. 6 (A)). In fluorescence mode, exciting the unbound NeuroSensor 715 at 559 nm provided fluorescence emission at 686 nm. In fluorescence mode, exciting the bound complex at 559 nm upon adding serotonin produced a marked 8.0-fold fluorescence enhancement at […] (FIG. 6 (B)).

Data set [5] in a line: Fluorescence/absorbance titration of NS715 with dopamine. The format is binding. As to the method:
as §2, §3

Data set [6] in a line: Fluorescence/absorbance titration of NS715 with glutamate. In kind it is binding. As to the method:
as §2, §3

The nature of data set [7]: Fluorescence/absorbance titration of NS715 with norepinephrine. In kind it is binding. As to the method:
as §2, §3

Data set [8] is described as follows: Spectral characteristics of sensors (absorption, emission, Stokes shift). The format is physicochemical. Here is the method:
as §2, §3

For data set [9] the following is noted: in vitro; cited from earlier work.
[10] abbreviates: intensity at saturation from fit.
[11] abbreviates: λex = 559 nm, λem = 780 nm, buffer pH 5.0, error ±10%.
The mark [12] stands for this setting: sensor saturated with primary amine analyte (bound).
The mark [13] stands for this setting: thiophene in place of benzene moiety on NeuroSensor 521 platform.

“And” between values parts separate entries of the source, which are not always exact repeats. Equal values may be shown once.

`CCN1CCN(CC)c2cc3c(-c4cccs4)c(C=O)c(=O)oc3cc21` [NS715]: the results for the “fluorescence when excited at 633 nm” value in [1] and in data set [2] (norepinephrine-enriched cells) were “marginal fluorescence” and “punctate pattern with strong fluorescence”, respectively. In addition, the average fluorescence intensity in data set [1] (650-710 nm bandpass, n=20) is listed as 0.85±0.29; in data set [2] (norepinephrine-enriched cells, 650-710 nm bandpass, n=20) it was 12.42±1.75. Also, the “average fluorescence intensity of norepinephrine-enriched cells relative to epinephrine-enriched cells” value in data set [2] was determined as 15 fold. Moreover, in data set [3], the “modulation of absorption or fluorescence spectrum upon interaction with epinephrine” value is “no modulation in the absorption or fluorescence spectrum”. Moreover, in [4] (serotonin vs glutamate, listed as NeuroSensor 715), the “higher binding constant for serotonin compared to glutamate” value was 19 fold and 18 fold. In addition, the fluorescence enhancement was determined as 8.0 fold in data set [4] (serotonin, at 715 nm); 8.0 fold in [4] (serotonin, excited at 559 nm, measured at 780 nm); 3.4 fold in data set [5]; 3.0 fold in [6]; 3.0 fold in [7] (norepinephrine). The Isat/I0 in data set [4] (serotonin, fluorescence intensity at saturation from fit to binding isotherm) was 8.0; in data set [5] (setting [10]), 4.0; in data set [6] (setting [10]), 3.0; in data set [7] (norepinephrine, intensity at saturation from fit) it was 3.4. In addition, the Ka in data set [4] (serotonin, fluorescence spectroscopy, λex = 559 nm, λem = 780 nm, buffer pH 5.0, error ±10%) was found to be 409 M⁻¹; in [5] (setting [11]) it was 145 M⁻¹; in [6] (setting [11]), 22.3 M⁻¹; in data set [7] (norepinephrine, λex = 559 nm, λem = 780 nm, buffer pH 5.0, error ±10%), 129 M⁻¹. The “higher binding constants of catecholamines compared to glutamate” value in data set [7] (norepinephrine and dopamine on average vs glutamate) is 6.0 fold. Also, the “increase of Stokes shift compared to thiophene-based NeuroSensor 521 derivative” value in data set [8] (both unbound and bound complex) is recorded as “over 125 nm”. The Stokes shift in data set [8] (setting [12]) is on record as 169 nm; in data set [8] (unbound sensor, listed as NeuroSensor 715), 186 nm. Besides, the λabs was determined as 546 nm in [8] (setting [12]) and 500 nm in data set [8] (unbound sensor). For the same compound, the λem turned out to be 715 nm in data set [8] (setting [12]) and 686 nm in [8] (unbound sensor).

`CCN(CC)c1ccc2c(-c3ccccc3)c(C=O)c(=O)oc2c1` [benzene-based NeuroSensor 521 derivative]: in data set [8] (setting [12]), the Stokes shift is recorded as 32 nm, the λabs is on record as 488 nm and the λem stood at 520 nm. Also, in data set [8] (unbound sensor), the Stokes shift was 53 nm, the λabs is given as 452 nm and the λem is 505 nm.

Take `CCN(CC)c1ccc2c(-c3cccs3)c(C=O)c(=O)oc2c1`: in [8] (setting [12]), the Stokes shift amounted to 37 nm, the λabs is listed as 502 nm and the λem turned out to be 539 nm. Moreover, in data set [8] (setting [13]), the “bathochromic shift in absorbance” value was 10 nm and the “bathochromic shift in fluorescence emission” value amounted to 17 nm. Also, in data set [8] (unbound sensor), the Stokes shift was found to be 60 nm, the λabs is 462 nm and the λem is listed as 522 nm.

As for `CCN(CC)c1ccc2c(-c3ccc(OC)cc3)c(C=O)c(=O)oc2c1` [NS521], the “fluorescence response upon interaction with serotonin” value in data set [9] is recorded as “fluorescence quenching”.
